# Experimental data as given in patent US7759486B2, “2,4,5-Trisubstituted pyrimidine compounds” (GlaxoSmithKline LLC, priority 2000, dated 2010).
# Target: T1, CSBP/p38 (Homo sapiens, UniProt Q16539)
# T1 construct: made in house; host or cells: yeast
# Test: CSBP/p38 Kinase Assay (32P transfer from ATP to EGFR-derived T669 peptide)
# Format: biochemical
# Settings: yeast-expressed, activated and purified p38, 0.17 mM ATP, 25 min at 37° C., read-out: IC50, positive inhibitory activity in this binding assay
# Procedure: Assay: Test compound concentrations were prepared at 10× concentrations and LPS prepared at […] (final conc. of 50 ng/ml LPS) and added in 50 uL volumes to 1.5 mL eppendorf tubes. Heparinized human whole blood was obtained from healthy volunteers and was dispensed into eppendorf tubes containing compounds and LPS in 0.4 mL volumes and the tubes incubated at 37 C. Following a 4 hour incubation, the tubes were centrifuged at 5000 rpm for 5 minutes in a TOMY microfuge, plasma was withdrawn and frozen at −80 C. Cytokine measurement: IL-1 and/or TNF were quantified using a standardized ELISA technology. An in-house ELISA kit was used to detect human IL-1 and TNF. Concentrations of IL-1 or TNF were determined from standard curves of the appropriate cytokine and IC50 values for test compound (concentration that inhibited 50% of LPS-stimulated cytokine production) were calculated by linear regression analysis. CSBP/p38 Kinase Assay:
# This assay measures the CSBP/p38-catalyzed transfer of ^32P from […] to threonine residue in an epidermal growth factor receptor (EGFR)-derived peptide (T669) with the following sequence: […] (SEQ ID No. 1) (residues 661-681). […]
# Reactions were carried in round bottom 96 well plate (from Corning) in a 30 ml volume. […] Filters were washed with 75 mM phosphoric acids, and incorporated 32P was quantified using beta scintillation counter. […]
# T1 sequence (Q16539 whole entry): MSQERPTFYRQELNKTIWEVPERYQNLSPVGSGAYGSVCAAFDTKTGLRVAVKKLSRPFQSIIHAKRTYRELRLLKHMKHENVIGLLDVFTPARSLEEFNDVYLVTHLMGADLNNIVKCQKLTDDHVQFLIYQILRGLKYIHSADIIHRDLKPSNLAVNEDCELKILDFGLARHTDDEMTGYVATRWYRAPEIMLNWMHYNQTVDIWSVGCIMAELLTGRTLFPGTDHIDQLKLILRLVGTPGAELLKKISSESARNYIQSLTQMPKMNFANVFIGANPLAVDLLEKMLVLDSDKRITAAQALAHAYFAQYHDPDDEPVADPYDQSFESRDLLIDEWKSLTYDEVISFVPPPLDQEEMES
row,Compound,IC50 [µM]
1,"CSc1nc(Oc2ccccc2)c2ccc(=O)n(-c3ccccc3Cl)c2n1 [Example 111, 8-(2-Chloro-phenyl)-2-methylsulfanyl-4-phenoxy-8H-pyrido[2,3-d]pyrimidin-7-one]",< 10

# System: not given
# Test: not given
# Settings: not given
row,Compound,melting point
1,"Cc1cc(F)ccc1-c1nc(NCCO)nc2c1ccc(=O)n2-c1ccccc1F [Example 136, 4-(4-fluoro-2-methylphenyl)-8-(2-fluorophenyl)-2-(2-hydroxylethylamino)-5H-pyrido[2,3-d]pyrimidin-7-one]",120 to 124 °C
2,"Cc1cc(F)ccc1-c1nc(NCCNC(=O)Nc2cccc(F)c2)nc2c1ccc(=O)n2-c1c(F)cccc1F [Example 161, 1-[2-[8-(2,6-Difluorophenyl)-4-(4-fluoro-2-methylphenyl)-7-oxo-7,8-dihydro-pyrido[2,3-d]pyrimidin-2-ylamino]ethyl]-3-[3-fluorophenyl]urea]",131 to 144 °C
3,"Cc1cc(F)ccc1-c1nc(NC2CCOCC2)nc2c1ccc(=O)n2-c1ccccc1F [Example 146, 2-(Tetrahydropyran-4-ylamino)-4-(4-fluoro-2-methylphenyl)-8-(2-fluorophenyl)-8H-pyrido[2,3-d]pyrimidin-7-one]",211 to 212 °C
4,Cc1cc(F)ccc1-c1nc(NCCNC(=O)C(C)(C)C)nc2c1ccc(=O)n2-c1c(F)cccc1F [Example 166],111 to 133 °C
5,Cc1cc(F)ccc1-c1nc(NCCNC(=O)Nc2ccccc2)nc2c1ccc(=O)n2-c1c(F)cccc1F [Example 159],142 to 148 °C
6,"Cc1cc(F)ccc1-c1nc(OCCN)nc2c1ccc(=O)n2-c1c(F)cccc1F [Example 131, 8-(2,6-Difluorophenyl)-4-(4-fluoro-2-methylphenyl)-2-(2-aminoethoxy)-8H-pyrido[2,3-d]pyrimidin-7-one]",96 to 99 °C
7,"COC(=O)CNc1nc(-c2ccc(F)cc2C)c2ccc(=O)n(-c3c(F)cccc3F)c2n1 [Example 190, Methyl N-[8-(2,6-difluorophenyl)-4-(4-fluoro-2-methylphenyl)-7,8-dihydro-7-oxopyrido[2,3-d]pyrimidin-2-yl] glycinate]",212 to 213 °C
8,"Cc1cc(F)ccc1-c1nc(NC(C)(C)CO)nc2c1ccc(=O)n2-c1ccccc1F [Example 143, 2-(1,1-dimethyl-2-hydroxyethylamino)-4-(4-fluoro-2-methylphenyl)-8-(2 fluorophenyl)-8H-pyrido[2,3-d]pyrimidin-7-one]",106 to 112 °C
9,"CCOc1nc(-c2ccc(F)cc2C)c2ccc(=O)n(-c3ccccc3F)c2n1 [Example 156, 2-Ethoxy-4-(4-fluoro-2-methylphenyl)-8-(2-fluorophenyl)-8H-pyrido[2,3-d]pyrimidin-7-one]",137 to 139 °C
10,"Cc1cc(F)ccc1-c1nc(NCCNC(=O)c2ccccc2)nc2c1ccc(=O)n2-c1c(F)cccc1F [Example 163, 8-(2,6-Difluorophenyl)-4-(4-fluoro-2-methylphenyl)-2-[N-(2-aminoethyl)-3-benzamido]-8H-pyrido[2,3-d]pyrimidin-7-one]",246 to 248 °C
11,"Cc1cc(F)ccc1-c1nc(NC(C)(CO)CO)nc2c1ccc(=O)n2-c1c(F)cccc1F [Example 154, 2-(1-hydroxymethyl-1-methyl-2-hydroxyethylamino)-4-(4-fluoro-2-methylphenyl)-8-(2,6-difluorophenyl)-8H-pyrido[2,3-d]pyrimidin-7-one]",158 to 160 °C
12,"CCNc1nc(-c2ccc(F)cc2C)c2ccc(=O)n(-c3ccccc3F)c2n1 [Example 140, 2-Ethylamino-4-(4-fluoro-2-methylphenyl)-8-(2-fluorophenyl)-8H-pyrido[2,3-d]pyrimidin-7-one]",176 to 177 °C
13,"Cc1cc(F)ccc1-c1nc(NCCNS(C)(=O)=O)nc2c1ccc(=O)n2-c1c(F)cccc1F [Example 189, N-[2-[[8-(2,6-Difluorophenyl)-4-(4-fluoro-2-methylphenyl)-7,8-d hydro-7-oxopyrido[2,3-d]pyrimidin-2-yl]amino]ethyl]methanesulfonamide]",105 to 115 °C (dec.)
14,"Cc1cc(F)ccc1-c1nc(NC(C)(C)CO)nc2c1ccc(=O)n2-c1c(F)cccc1F [Example 139, 4-(4-fluoro-2-methylphenyl)-8-(2,6-difluorophenyl)-2-(1,1-dimethyl-2-hydroxyethylamino)-8H-pyrido[2,3-d]pyrimidin-7-one]",99 to 105 °C
15,"Cc1cc(F)ccc1-c1nc(NCC(F)(F)F)nc2c1ccc(=O)n2-c1c(F)cccc1F [Example 153, 2-(2,2,2-Trifluoroethylamino)-4-(4-fluoro-2-methylphenyl)-8-(2,6-difluorophenyl)-8H-pyrido[2,3-d]pyrimidin-7-one]",195 to 196 °C
16,"Cc1cc(F)ccc1-c1nc(NC(C)(CO)CO)nc2c1ccc(=O)n2-c1ccccc1F [Example 152, 2-(1-hydroxymethyl-1-methyl-2-hydroxyethylamino)-4-(4-fluoro-2-methylphenyl)-8-(2-fluorophenyl)-8H-pyrido[2,3-d]pyrimidin-7-one]",160 to 162 °C
17,"Cc1cc(F)ccc1-c1nc(N[C@H](C)CO)nc2c1ccc(=O)n2-c1ccccc1F [Example 142, (R)-4-(4-fluoro-2-methylphenyl)-8-(2-fluorophenyl)-2-[(1-hydroxyprop-2-yl)amino]-8H-pyrido[2,3-d]pyrimidin-7-one]",116 to 122 °C
18,CCNC(=O)CNc1nc(-c2ccc(F)cc2C)c2ccc(=O)n(-c3c(F)cccc3F)c2n1 [Example 192],250 to 253 °C (dec.)
